Test results taken from the NIST ThermoML archive (doi:10.1021/je060107n).
± gives the expanded uncertainty stated by the source.

Test: mn = molality of the nth substance listed, in mol/kg
Conditions: 101 kPa, Liquid; for mass density: Pycnometric method; for viscosity: Capillary tube (Ostwald / Ubbelohde) method; for speed of sound: Linear variable-path acoustic interferometer

O=[N+]([O-])[O-].O=[N+]([O-])[O-].[Mg+2] [magnesium nitrate] + O
Conditions | mass density [kg/m3] | speed of sound [m/s] | viscosity [mPa·s]
314.7 K, m1 = 0.0528 | 996.94 ± 0.66 | – | –
315 K, m1 = 0.0145 | 992.8 ± 0.65 | – | –
315.05 K, m1 = 1.525 | 1135.2 ± 0.8 | – | –
315.1 K, m1 = 3.501 | 1288.9 ± 0.9 | – | –
315.15 K, m1 = 3.757 | 1305.4 ± 0.9 | – | –
315.25 K, m1 = 0.9898 | 1088.5 ± 0.8 | – | –
315.25 K, m1 = 1.262 | 1112.4 ± 0.8 | – | –
315.3 K, m1 = 3.17 | 1270.8 ± 0.8 | – | –
315.6 K, m1 = 4.728 | 1367.6 ± 1.1 | – | –
315.8 K, m1 = 5.134 | 1391.1 ± 1 | – | –
315.95 K, m1 = 0.3405 | 1025.4 ± 0.7 | – | –
316.1 K, m1 = 0.896 | 1079 ± 0.7 | – | –
316.1 K, m1 = 2.793 | 1238.2 ± 0.9 | – | –
316.15 K, m1 = 1.827 | 1162.1 ± 0.8 | – | –
316.25 K, m1 = 4.039 | 1322.3 ± 0.9 | – | –
316.35 K, m1 = 4.97 | 1380.1 ± 1 | – | –
316.45 K, m1 = 5.282 | 1399.6 ± 1 | – | –
316.75 K, m1 = 0.6173 | 1052.2 ± 0.8 | – | –
317.15 K, m1 = 0.0528 | 995.93 ± 0.66 | – | –
317.15 K, m1 = 3.501 | 1287.7 ± 1 | – | –
317.25 K, m1 = 1.525 | 1134 ± 0.8 | – | –
317.25 K, m1 = 3.096 | 1259.7 ± 1.2 | – | –
317.35 K, m1 = 2.493 | 1213.8 ± 1 | – | –
317.35 K, m1 = 3.757 | 1304.1 ± 0.9 | – | –
317.5 K, m1 = 0.9898 | 1087.3 ± 0.8 | – | –
317.5 K, m1 = 1.262 | 1111.2 ± 0.8 | – | –
317.55 K, m1 = 3.118 | 1260.5 ± 0.8 | – | –
317.55 K, m1 = 4.285 | 1337.9 ± 1 | – | –
317.75 K, m1 = 2.131 | 1186 ± 0.9 | – | –
317.85 K, m1 = 0.2491 | 1016.9 ± 0.7 | – | –
317.95 K, m1 = 4.883 | 1372.7 ± 1 | – | –
318.15 K, m1 = 0.0145 | – | 1540.2 ± 1.9 | 0.6082 ± 0.008
318.15 K, m1 = 0.0528 | – | 1541.4 ± 1.9 | 0.62 ± 0.0082
318.15 K, m1 = 0.2491 | – | 1554.4 ± 1.9 | 0.655 ± 0.0086
318.15 K, m1 = 0.3405 | – | 1552.3 ± 1.9 | –
318.15 K, m1 = 0.5931 | – | – | 0.7284 ± 0.0096
318.15 K, m1 = 0.6173 | – | 1572 ± 1.9 | –
318.15 K, m1 = 0.896 | – | 1590 ± 1.9 | –
318.15 K, m1 = 0.9898 | – | 1596.3 ± 1.9 | 0.8367 ± 0.011
318.15 K, m1 = 1.262 | – | 1612.6 ± 1.9 | 0.9225 ± 0.012
318.15 K, m1 = 1.525 | – | 1629.5 ± 1.9 | –
318.15 K, m1 = 1.827 | 1160.9 ± 0.8 | 1650.5 ± 1.9 | 1.117 ± 0.015
318.15 K, m1 = 2.131 | – | 1668.7 ± 2 | 1.245 ± 0.016
318.15 K, m1 = 2.493 | – | 1689.3 ± 2 | –
318.15 K, m1 = 2.584 | – | – | 1.473 ± 0.019
318.15 K, m1 = 2.793 | – | 1708.7 ± 2 | –
318.15 K, m1 = 3.096 | – | – | 1.772 ± 0.023
318.15 K, m1 = 3.118 | – | 1727.2 ± 2 | –
318.15 K, m1 = 3.17 | – | 1733.9 ± 2 | –
318.15 K, m1 = 3.329 | – | – | 1.935 ± 0.025
318.15 K, m1 = 3.501 | – | 1748.8 ± 2 | –
318.15 K, m1 = 3.704 | – | – | 2.216 ± 0.029
318.15 K, m1 = 3.757 | – | 1761.7 ± 2 | –
318.15 K, m1 = 4.039 | – | – | 2.545 ± 0.033
318.15 K, m1 = 4.051 | 1321.2 ± 0.9 | 1776 ± 2 | –
318.15 K, m1 = 4.285 | – | 1787.8 ± 2 | –
318.15 K, m1 = 4.403 | – | 1794.4 ± 2 | –
318.15 K, m1 = 4.728 | – | – | 3.456 ± 0.045
318.15 K, m1 = 4.883 | – | 1818.4 ± 2.1 | –
318.15 K, m1 = 4.907 | – | – | 3.76 ± 0.049
318.15 K, m1 = 5.134 | – | 1832.8 ± 2.1 | –
318.15 K, m1 = 5.282 | – | – | 4.426 ± 0.058
318.25 K, m1 = 3.704 | 1300.4 ± 0.9 | – | –
318.35 K, m1 = 2.584 | 1221.6 ± 0.8 | – | –
318.4 K, m1 = 0.896 | 1077.9 ± 0.7 | – | –
318.5 K, m1 = 4.97 | 1378.6 ± 1 | – | –
318.7 K, m1 = 1.694 | 1148.1 ± 0.9 | – | –
318.8 K, m1 = 4.403 | 1344 ± 0.9 | – | –
318.8 K, m1 = 5.282 | 1398.1 ± 1 | – | –
318.9 K, m1 = 0.5931 | 1048.4 ± 0.8 | – | –
319.05 K, m1 = 0.6173 | 1051.1 ± 0.7 | – | –
319.35 K, m1 = 1.525 | 1132.8 ± 0.8 | – | –
319.35 K, m1 = 3.757 | 1302.8 ± 1 | – | –
319.45 K, m1 = 3.118 | 1259.2 ± 0.8 | – | –
319.5 K, m1 = 3.17 | 1268.1 ± 0.9 | – | –
319.55 K, m1 = 0.0528 | 994.98 ± 0.7 | – | –
319.55 K, m1 = 1.262 | 1110.2 ± 0.8 | – | –
319.9 K, m1 = 2.131 | 1184.8 ± 0.8 | – | –
319.9 K, m1 = 4.728 | 1364.8 ± 1 | – | –
319.95 K, m1 = 0.0145 | 990.65 ± 0.67 | – | –
320.2 K, m1 = 5.134 | 1388.4 ± 1 | – | –
320.25 K, m1 = 2.793 | 1235.8 ± 0.9 | – | –
320.3 K, m1 = 1.827 | 1159.7 ± 0.8 | – | –
320.3 K, m1 = 4.039 | 1319.5 ± 0.9 | – | –
320.65 K, m1 = 0.2491 | 1014.7 ± 0.8 | – | –
320.85 K, m1 = 1.694 | 1146.9 ± 0.8 | – | –
320.9 K, m1 = 0.3405 | 1023.3 ± 0.8 | – | –
320.9 K, m1 = 5.282 | 1396.6 ± 1 | – | –
321.25 K, m1 = 0.5931 | 1047.4 ± 0.7 | – | –
321.35 K, m1 = 3.096 | 1257.2 ± 0.9 | – | –
321.6 K, m1 = 2.493 | 1211.3 ± 1 | – | –
321.75 K, m1 = 0.9898 | 1085.2 ± 0.7 | – | –
321.8 K, m1 = 4.285 | 1335.1 ± 0.9 | – | –
321.9 K, m1 = 4.728 | 1363.5 ± 1.3 | – | –
321.95 K, m1 = 0.0528 | 993.94 ± 0.7 | – | –
322.1 K, m1 = 0.0145 | 989.61 ± 0.7 | – | –
322.2 K, m1 = 4.883 | 1370 ± 1.2 | – | –
322.25 K, m1 = 2.793 | 1234.5 ± 0.9 | – | –
322.35 K, m1 = 2.584 | 1219.2 ± 0.9 | – | –
322.45 K, m1 = 3.704 | 1297.7 ± 0.9 | – | –
322.45 K, m1 = 4.039 | 1318.2 ± 2.3 | – | –
322.75 K, m1 = 0.2491 | 1013.6 ± 0.7 | – | –
322.75 K, m1 = 4.051 | 1318.5 ± 0.9 | – | –
322.8 K, m1 = 4.97 | 1375.7 ± 1 | – | –
323.05 K, m1 = 4.403 | 1341.3 ± 1.2 | – | –
323.15 K, m1 = 0.0145 | – | 1545.7 ± 1.9 | 0.5591 ± 0.0074
323.15 K, m1 = 0.0528 | – | 1548 ± 1.9 | 0.5708 ± 0.0076
323.15 K, m1 = 0.2491 | – | 1559.2 ± 1.9 | 0.6023 ± 0.0079
323.15 K, m1 = 0.3405 | – | 1563.6 ± 1.9 | –
323.15 K, m1 = 0.5931 | – | – | 0.6703 ± 0.0088
323.15 K, m1 = 0.6173 | – | 1576.6 ± 1.9 | –
323.15 K, m1 = 0.896 | – | 1593.9 ± 1.9 | –
323.15 K, m1 = 0.9898 | – | 1600.3 ± 1.9 | 0.7676 ± 0.01
323.15 K, m1 = 1.262 | – | 1614.9 ± 1.9 | 0.8482 ± 0.011
323.15 K, m1 = 1.525 | – | 1631.4 ± 1.9 | –
323.15 K, m1 = 1.827 | – | 1651.2 ± 1.9 | 1.028 ± 0.013
323.15 K, m1 = 2.131 | – | 1667.3 ± 2 | 1.145 ± 0.015
323.15 K, m1 = 2.493 | – | 1689.2 ± 2 | –
323.15 K, m1 = 2.584 | – | – | 1.353 ± 0.017
323.15 K, m1 = 2.793 | – | 1707.5 ± 2 | –
323.15 K, m1 = 3.096 | – | – | 1.629 ± 0.021
323.15 K, m1 = 3.118 | – | 1725.2 ± 2 | –
323.15 K, m1 = 3.17 | – | 1731.8 ± 2 | –
323.15 K, m1 = 3.329 | – | – | 1.772 ± 0.023
323.15 K, m1 = 3.501 | – | 1744 ± 2 | –
323.15 K, m1 = 3.704 | – | – | 2.028 ± 0.026
323.15 K, m1 = 3.757 | – | 1758.7 ± 2 | –
323.15 K, m1 = 4.039 | – | – | 2.319 ± 0.03
323.15 K, m1 = 4.051 | – | 1770.9 ± 2 | –
323.15 K, m1 = 4.285 | – | 1783.2 ± 2 | –
323.15 K, m1 = 4.403 | – | 1789.3 ± 2 | –
323.15 K, m1 = 4.728 | – | – | 3.107 ± 0.04
323.15 K, m1 = 4.883 | – | 1811.5 ± 2.1 | –
323.15 K, m1 = 4.907 | – | – | 3.418 ± 0.045
323.15 K, m1 = 5.134 | – | 1828.2 ± 2.1 | –
323.15 K, m1 = 5.282 | 1395.1 ± 1 | – | 3.975 ± 0.052
323.4 K, m1 = 0.6173 | 1049 ± 0.7 | – | –
323.5 K, m1 = 1.525 | 1130.6 ± 0.8 | – | –
323.5 K, m1 = 3.757 | 1300.1 ± 0.8 | – | –
323.55 K, m1 = 3.17 | 1265.4 ± 1.5 | – | –
323.6 K, m1 = 3.118 | 1256.7 ± 1.5 | – | –
323.75 K, m1 = 1.262 | 1107.8 ± 0.8 | – | –
323.95 K, m1 = 0.9898 | 1084 ± 0.8 | – | –
323.95 K, m1 = 2.131 | 1182.5 ± 0.9 | – | –
324.25 K, m1 = 1.827 | 1157.4 ± 0.9 | – | –
324.45 K, m1 = 5.134 | 1385.4 ± 1 | – | –
324.95 K, m1 = 1.694 | 1144.5 ± 0.8 | – | –
325.25 K, m1 = 5.282 | 1393.7 ± 1 | – | –
